Laboratory results published in publication PMC2911597, “Three-Dimensional Structure of TspO by Electron Cryomicroscopy of Helical Crystals” (Structure(London, England:1993), 2010).
Read-outs that look alike come from different tables or passages of the source.

T1: TspO (tryptophan-rich sensory protein) (Cereibacter sphaeroides, UniProt Q9RFC8)
T1 construct: C-terminal His6 tag, expressed in E. coli BL21(DE3), purified in DDM
T1 sequence (Q9RFC8 1-158): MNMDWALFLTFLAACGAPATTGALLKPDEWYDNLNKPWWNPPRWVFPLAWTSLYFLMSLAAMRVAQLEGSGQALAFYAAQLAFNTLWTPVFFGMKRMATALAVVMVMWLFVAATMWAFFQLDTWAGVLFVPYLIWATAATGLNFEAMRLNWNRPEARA


What was measured:
[1] = target: T1, TspO (tryptophan-rich sensory protein); test: intrinsic tryptophan fluorescence quenching titration, purified protein in DDM; format: binding
native gel or EMSA = target: the molecule itself; test: native gel or EMSA

Molecule | Kd [1] [µM] | also measured
C=CC1=C(C)c2cc3[nH]c(cc4nc(cc5[nH]c(cc1n2)c(C)c5CCC(=O)O)C(CCC(=O)O)=C4C)c(C)c3C=C [PPIX, protoporphyrin IX] | 8.6 ± 0.6 | –
CC1=C(CCC(=O)O)c2cc3[nH]c(cc4nc(cc5[nH]c(cc1n2)c(CCC(=O)O)c5C)C(C)=C4CCC(=O)O)c(CCC(=O)O)c3C [cPPIII, coproporphyrin III] | – | Kd ([1]; read-out: Kd): 17.9 ± 1.7 µM
C=CC1=C(C)C2=Cc3c(C=C)c(C)c4[n]3[Fe]([Cl])[n]3c(c(C)c(CCC(=O)O)c3=CC3=NC(=C4)C(C)=C3CCC(=O)O)=CC1=N2 [hemin] | 10 ± 2.5 | –
tryptophan-rich sensory protein (TspO) from Rhodobacter sphaeroides (natural protein, UniProt Q9RFC8 1-158, looked up, also called rsTspO; TspO-His6; source: E. coli BL21(DE3), pET29, purified in DDM (NiNTA-agarose, gel filtration)) MNMDWALFLTFLAACGAPATTGALLKPDEWYDNLNKPWWNPPRWVFPLAWTSLYFLMSLAAMRVAQLEGSGQALAFYAAQLAFNTLWTPVFFGMKRMATALAVVMVMWLFVAATMWAFFQLDTWAGVLFVPYLIWATAATGLNFEAMRLNWNRPEARA | – | stoichiometry N (native gel or EMSA): 2
